US12110294B2, “CD73 compounds” (Gilead Sciences, Inc., priority 2020, dated 2024)

Target: T1, CD73 activity in MDA-MB-231-GFP cells (Homo sapiens, UniProt P21589)
T1 construct: endogenous in cells; host or cells: MDA-MB-231-GFP cells
T1 sequence (P21589 27-549): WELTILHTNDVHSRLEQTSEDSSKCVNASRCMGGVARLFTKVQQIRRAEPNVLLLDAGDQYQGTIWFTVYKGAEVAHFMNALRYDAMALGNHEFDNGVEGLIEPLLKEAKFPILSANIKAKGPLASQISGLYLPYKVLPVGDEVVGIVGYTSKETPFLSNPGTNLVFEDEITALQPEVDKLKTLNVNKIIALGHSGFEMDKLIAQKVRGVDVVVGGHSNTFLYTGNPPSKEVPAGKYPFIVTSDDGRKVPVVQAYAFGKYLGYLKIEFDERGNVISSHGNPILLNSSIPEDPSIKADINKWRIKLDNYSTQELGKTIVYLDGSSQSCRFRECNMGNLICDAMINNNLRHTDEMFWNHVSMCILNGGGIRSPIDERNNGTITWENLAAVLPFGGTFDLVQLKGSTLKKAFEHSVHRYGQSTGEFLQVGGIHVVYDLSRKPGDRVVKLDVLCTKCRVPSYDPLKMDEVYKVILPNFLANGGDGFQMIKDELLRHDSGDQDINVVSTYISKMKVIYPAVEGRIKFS
Test: MDA-MB-231 Cell Based CD73 Activity Assay (DMEM)
Settings: 3000 cells per well, DMEM medium with 10% human plasma, overnight compound treatment, AMP 200 uM

Structure (SMILES)	EC50
O=c1[nH]cc(-c2cc([C@H]3C[C@@H]3c3ccc(OC(F)(F)F)cn3)c3nccn3n2)c(=O)[nH]1 (single isomer, unassigned) [Example 373]	9.61 nM
O=C(c1cccc([C@H]2C[C@@H]2c2cc(-c3c[nH]c(=O)[nH]c3=O)nn3ccnc23)c1)N1CC(F)(F)C(F)(F)C1 (racemic) [Example 304, 5-(8-((2S,2S)-2-(3-(3,3,4,4-tetrafluoropyrrolidine-1-carbonyl)phenyl)cyclopropyl)imidazo[1,2-b]pyridazin-6-yl)pyrimidine-2,4(1H,3H)-dione]	3.04 nM
CN(C)C(=O)c1ccc([C@H]2C[C@@H]2c2cc(-c3c[nH]c(=O)[nH]c3=O)nn3ccnc23)cc1 (racemic) [Example 288, 4-((2S,2S)-2-(6-(2,4-dioxo-1,2,3,4-tetrahydropyrimidin-5-yl)imidazo[1,2-b]pyridazin-8-yl)cyclopropyl)-N,N-dimethylbenzamide]	35.7 nM
O=c1[nH]cc(-c2cc([C@H]3C[C@@H]3c3cccc4cnccc34)c3nccn3n2)c(=O)[nH]1 (racemic) [Example 168, 5-(8-((1S,2S)-2-(isoquinolin-5-yl)cyclopropyl)imidazo[1,2-b]pyridazin-6-yl)pyrimidine-2,4(1H,3H)-dione]	306 nM
O=c1[nH]cc(-c2cc([C@H]3C[C@@H]3c3cnn(C(F)F)c3)c3nccn3n2)c(=O)[nH]1 (racemic) [Example 368, 5-(8-((2S,2S)-2-(1-(difluoromethyl)-1H-pyrazol-4-yl)cyclopropyl)imidazo[1,2-b]pyridazin-6-yl)pyrimidine-2,4(1H,3H)-dione]	20.3 nM
N#Cc1ccc([C@H]2C[C@@H]2c2cc(-c3c[nH]c(=O)[nH]c3=O)nn3ccnc23)cc1C(F)(F)F (racemic) [Example 411, 4-((1S,2S)-2-(6-(2,4-dioxo-1,2,3,4-tetrahydropyrimidin-5-yl)imidazo[1,2-b]pyridazin-8-yl)cyclopropyl)-2-(trifluoromethyl)benzonitrile]	42.6 nM
O=c1[nH]cc(-c2cc([C@H]3C[C@@H]3c3cccc4ccncc34)c3nccn3n2)c(=O)[nH]1 (racemic) [Example 166, 5-(8-((1S,2S)-2-(isoquinolin-8-yl)cyclopropyl)imidazo[1,2-b]pyridazin-6-yl)pyrimidine-2,4(1H,3H)-dione]	378 nM
N#Cc1cncc([C@H]2C[C@@H]2c2cc(-c3c[nH]c(=O)[nH]c3=O)nn3ccnc23)c1 (racemic) [Example 311, 5-((2S,2S)-2-(6-(2,4-dioxo-1,2,3,4-tetrahydropyrimidin-5-yl)imidazo[1,2-b]pyridazin-8-yl)cyclopropyl)nicotinonitrile]	11.6 nM
O=C1N(CC2(F)CC2)c2cc([C@H]3C[C@@H]3c3cc(-c4c[nH]c(=O)[nH]c4=O)nn4c(F)cnc34)ccc2C12CC2 (racemic) [Example 735, 5-(3-fluoro-8-((2S,2S)-2-(1′-((1-fluorocyclopropyl)methyl)-2′-oxospiro[cyclopropane-1,3′-indolin]-6′-yl)cyclopropyl)imidazo[1,2-b]pyridazin-6-yl)pyrimidine-2,4(1H,3H)-dione]	0.38 nM
CNC(=O)c1cccc([C@H]2C[C@@H]2c2cc(-c3c[nH]c(=O)[nH]c3=O)nn3ccnc23)c1 (racemic) [Example 286, 3-((2S,2S)-2-(6-(2,4-dioxo-1,2,3,4-tetrahydropyrimidin-5-yl)imidazo[1,2-b]pyridazin-8-yl)cyclopropyl)-N-methylbenzamide]	2.42 nM
O=C(c1ccc([C@H]2C[C@@H]2c2cc(-c3c[nH]c(=O)[nH]c3=O)nn3ccnc23)cc1)N1CC(C(F)(F)F)C1 (racemic) [Example 291, 5-(8-((1S,2S)-2-(4-(3-(trifluoromethyl)azetidine-1-carbonyl)phenyl)cyclopropyl)imidazo[1,2-b]pyridazin-6-yl)pyrimidine-2,4(1H,3H)-dione]	18.6 nM
O=C1N(CC(F)(F)F)c2cc([C@H]3C[C@@H]3c3cc(-c4c[nH]c(=O)[nH]c4=O)nn4c(Cl)c(Cl)nc34)ccc2C12CC2 (single isomer, unassigned) [Example 741]	0.68 nM
O=c1[nH]cc(-c2cc([C@H]3C[C@@H]3c3ccncc3)c3ncc(F)n3n2)c(=O)[nH]1 (racemic) [Example 181, 5-(3-fluoro-8-((1S,2S)-2-(pyridin-4-yl)cyclopropyl)imidazo[1,2-b]pyridazin-6-yl)pyrimidine-2,4(1H,3H)-dione]	6.42 nM
O=c1[nH]cc(-c2cc([C@H]3C[C@@H]3c3ccc4ncsc4c3)c3nc(C4CC4)cn3n2)c(=O)[nH]1 (racemic) [Example 143, 5-(8-((1S,2S)-2-(benzo[d]thiazol-6-yl)cyclopropyl)-2-cyclopropylimidazo[1,2-b]pyridazin-6-yl)pyrimidine-2,4(1H,3H)-dione]	13.1 nM
O=c1[nH]cc(-c2cc([C@H]3C[C@@H]3c3cnn(C(F)F)c3)c3ncc(F)n3n2)c(=O)[nH]1 (racemic) [Example 370, 5-(8-((1S,2S)-2-(1-(difluoromethyl)-1H-pyrazol-4-yl)cyclopropyl)-3-fluoroimidazo[1,2-b]pyridazin-6-yl)pyrimidine-2,4(1H,3H)-dione]	15.7 nM
O=c1[nH]cc(-c2cc([C@H]3C[C@@H]3c3ncc(C(F)(F)F)cn3)c3ncc(F)n3n2)c(=O)[nH]1 (racemic) [Example 378, 5-(3-fluoro-8-((1S,2S)-2-(5-(trifluoromethyl)pyrimidin-2-yl)cyclopropyl)imidazo[1,2-b]pyridazin-6-yl)pyrimidine-2,4(1H,3H)-dione]	18.9 nM
O=c1[nH]cc(-c2cc(N3CC(Oc4ccc(C(F)(F)F)cn4)C(F)(F)C3)c3ncnn3n2)c(=O)[nH]1 (racemic) [Example 432, 5-(8-(3,3-difluoro-4-((5-(trifluoromethyl)pyridin-2-yl)oxy)pyrrolidin-1-yl)-[1,2,4]triazolo[1,5-b]pyridazin-6-yl)pyrimidine-2,4(1H,3H)-dione]	2.58 nM
O=c1[nH]cc(-c2cc([C@H]3C[C@@H]3c3ccc(OC(F)(F)F)cc3)c3nccn3n2)c(=O)[nH]1 (racemic) [Example 359, 5-(8-((1S,2S)-2-(4-(trifluoromethoxy)phenyl)cyclopropyl)imidazo[1,2-b]pyridazin-6-yl)pyrimidine-2,4(1H,3H)-dione]	22 nM
N#Cc1cc([C@H]2C[C@@H]2c2cc(-c3c[nH]c(=O)[nH]c3=O)nn3ccnc23)ccc1C(F)(F)F (racemic) [Example 412, 5-((2S,2S)-2-(6-(2,4-dioxo-1,2,3,4-tetrahydropyrimidin-5-yl)imidazo[1,2-b]pyridazin-8-yl)cyclopropyl)-2-(trifluoromethyl)benzonitrile]	38.3 nM
N#Cc1cccc([C@H]2C[C@@H]2c2cc(-c3c[nH]c(=O)[nH]c3=O)nn3ccnc23)c1F (racemic) [Example 408, 3-((1S,2S)-2-(6-(2,4-dioxo-1,2,3,4-tetrahydropyrimidin-5-yl)imidazo[1,2-b]pyridazin-8-yl)cyclopropyl)-2-fluorobenzonitrile]	7.44 nM
O=C(c1cccc([C@H]2C[C@@H]2c2cc(-c3c[nH]c(=O)[nH]c3=O)nn3ccnc23)c1)N1CC(F)(F)C1 (racemic) [Example 297, 5-(8-((2S,2S)-2-(3-(3,3-difluoroazetidine-1-carbonyl)phenyl)cyclopropyl)imidazo[1,2-b]pyridazin-6-yl)pyrimidine-2,4(1H,3H)-dione]	1.31 nM
CC1(C)CCN(C(=O)c2ccc([C@H]3C[C@@H]3c3cc(-c4c[nH]c(=O)[nH]c4=O)nn4ccnc34)cc2)C1 (racemic) [Example 307, 5-(8-((2S,2S)-2-(4-(3,3-dimethylpyrrolidine-1-carbonyl)phenyl)cyclopropyl)imidazo[1,2-b]pyridazin-6-yl)pyrimidine-2,4(1H,3H)-dione]	96.1 nM
N#Cc1ccc([C@H]2C[C@@H]2c2cc(-c3c[nH]c(=O)[nH]c3=O)nn3c(F)cnc23)nc1 (racemic) [Example 151, 6-((1S,2S)-2-(6-(2,4-dioxo-1,2,3,4-tetrahydropyrimidin-5-yl)-3-fluoroimidazo[1,2-b]pyridazin-8-yl)cyclopropyl)nicotinonitrile]	1.94 nM
O=c1[nH]cc(-c2cc([C@H]3C[C@@H]3c3nc4ccccc4[nH]3)c3nccn3n2)c(=O)[nH]1 (racemic) [Example 461, 5-(8-((1S,2S)-2-(1H-benzo[d]imidazol-2-yl)cyclopropyl)imidazo[1,2-b]pyridazin-6-yl)pyrimidine-2,4(1H,3H)-dione]	11.6 nM
Cn1cc([C@H]2C[C@@H]2c2cc(-c3c[nH]c(=O)[nH]c3=O)nn3ccnc23)ccc1=O (racemic) [Example 184, 5-(8-((1S,2S)-2-(1-methyl-6-oxo-1,6-dihydropyridin-3-yl)cyclopropyl)imidazo[1,2-b]pyridazin-6-yl)pyrimidine-2,4(1H,3H)-dione]	9.45 nM
N#Cc1ccc([C@H]2C[C@@H]2c2cc(-c3c[nH]c(=O)[nH]c3=O)nn3ccnc23)nc1 (racemic) [Example 155, 6-((1S,2S)-2-(6-(2,4-dioxo-1,2,3,4-tetrahydropyrimidin-5-yl)imidazo[1,2-b]pyridazin-8-yl)cyclopropyl)nicotinonitrile]	5.42 nM
O=C(c1ccc([C@H]2C[C@@H]2c2cc(-c3c[nH]c(=O)[nH]c3=O)nn3ccnc23)cc1)N1CC(F)(F)C1 (racemic) [Example 292, 5-(8-((1S,2S)-2-(4-(3,3-difluoroazetidine-1-carbonyl)phenyl)cyclopropyl)imidazo[1,2-b]pyridazin-6-yl)pyrimidine-2,4(1H,3H)-dione]	5.72 nM
